Structures are written as SMILES.

Among the data in patent US8309138B2, “Pharmaceutical composition comprising microparticle oily suspension” (ASKA Pharmaceutical Co., Ltd., priority 2007, dated 2012) are solubility values, retold here.

This data set is described as follows: Solubility of the compound of formula (i). Type of data set: physicochemical. The protocol: Solubility of this compound is 1.09 μg/mL in Solution 1 (pH 1.2) defined in the Japanese Pharmacopoeia at 37° C., 0.88 μg/mL in Solution 2 (pH 6.8) defined in the Japanese Pharmacopoeia at 37° C., 0.53 μg/mL in a phosphate buffer (pH 7.2) at 37° C., and about 2 mg/mL in Panasate at room temperature.

For orientation: solubility means the concentration that dissolves in the medium under given conditions. A higher solubility goes with much dissolved substance. On to `O=C(Cc1c(F)cccc1Cl)Nc1onc(-c2ccc(F)cc2)c1-c1ccncn1` [formula (i)], for which the solubility is 1.09 µg/mL (Solution 1 defined in the Japanese Pharmacopoeia, simulated gastric fluid, Solution 1 (pH 1.2) defined in the Japanese Pharmacopoeia at 37° C.); 0.88 µg/mL (Solution 2 defined in the Japanese Pharmacopoeia, aqueous buffer, Solution 2 (pH 6.8) defined in the Japanese Pharmacopoeia at 37° C.); 0.53 µg/mL (aqueous buffer, phosphate buffer (pH 7.2) at 37° C.); approximately 2000 µg/mL (oil or lipid, in Panasate at room temperature).
